Results on 19 molecules are retold here after paper PMC11279468, “Exploring a New Generation of Pyrimidine and Pyridine Derivatives as Anti-Influenza Agents Targeting the Polymerase PA–PB1 Subunits Interaction” (Pharmaceutics, 2024).

Series [1] relates to Influenza virus strain A/PR/8/34 (H1N1). The series can be described thus: microbe, parasite or virus in culture. The settings on record: unidentified influenza virus, MDCK, read-out: EC50 (PRA).
In series [2] the target is PA–PB1 interaction (6His-PA(239–716) / GST-PB1(1–25)) (Influenza A virus, UniProt P03433). The series can be described thus: biochemical. Format: binding.
A further series can be described thus: in vitro. The note with it: dog.

For orientation: EC50 means the concentration needed to bring the measured effect to its halfway point. By IC50 is commonly meant the concentration needed to halve the response being measured. High values mean weaker potency in that assay, low ones greater potency in that assay. Usually melting point stands for the temperature of the solid-liquid transition.

Description for in vitro: The cytotoxicity of compounds was tested in MDCK cells using the 3-(4,5-dimethylthiazol-2-yl)-2,5-diphenyl tetrazolium bromide (MTT) method, as previously reported [32]. Briefly, MDCK cells (seeded at a density of 2 × 10^4 per well) were grown in 96-well plates for 24 h and then treated with serial dilutions of test compounds, or DMSO as a control, in DMEM supplemented with 10% FBS. After incubation at 37 °C for 48 h, 5 mg/mL of MTT (Sigma, Tokyo, Japan) in PBS was added into each well and incubated at 37 °C for a further 4 h. Successively, a solubilization solution was added to lyse the cells and incubated overnight at 37 °C. Finally, optical density was read at the wavelength of 570 nm on a microtiter plate reader (MultiSkan FC, ThermoFisher Scientific).

Molecule `Cc1cccc(NC(=O)CSc2nc(-c3ccc(Cl)cc3)cc(-c3ccc(Cl)cc3)n2)c1` [Compound 2a, 2-{[4,6-Bis(4-chlorophenyl)pyrimidin-2-yl]thio}-N-(m-tolyl)acetamide] had a melting point of 225 to 227 °C. The EC50 in series [1] was above 100 µM. Half-maximal inhibition in series [2] (IC50) required 70.8 ± 19.5 µM. This molecule also showed a CC50 at 48 h in “in vitro” above 250 µM.
The corresponding values for `Cc1cccc(NC(=O)CSc2nc(-c3ccc(F)cc3)cc(-c3ccc(F)cc3)n2)c1` [Compound 2b, 2-{[4,6-Bis(4-fluorophenyl)pyrimidin-2-yl]thio}-N-(m-tolyl)acetamide] are 210 to 211 °C, 62.5 ± 4.3 µM, 137 ± 35 µM and above 250 µM.
The molecule `Cc1cccc(NC(=O)CSc2nc(-c3ccccc3)cc(-c3ccc(Cl)cc3)n2)c1` [Compound 2c, 2-{[4-(4-Chlorophenyl)-6-phenylpyrimidin-2-yl]thio}-N-(m-tolyl)acetamide] registered a melting point of 204 to 206 °C. The EC50 in series [1] was found to be 45.5 ± 2.1 µM. The molecule further gave an IC50 in series [2] of 86 ± 5.3 µM. Besides, in the series “in vitro”, the CC50 at 48 h is above 250 µM.
The like results for `Cc1cccc(NC(=O)CSc2nc(-c3ccc(F)cc3)cc(-c3ccc(Cl)cc3)n2)c1` [Compound 2e, 2-{[4-(4-Chlorophenyl)-6-(4-fluorophenyl)pyrimidin-2-yl]thio}-N-(m-tolyl)acetamide] were, in that order, 213 to 217 °C, 29.5 ± 0.7 µM, 125 ± 37 µM and 206 ± 12 µM.
`Cc1cccc(NC(=O)CSc2nc(-c3ccccc3)cc(-c3cccc4ccccc34)n2)c1` [Compound 2f, 2-{[4-(Naphthalen-1-yl)-6-phenylpyrimidin-2-yl)thio)-N-(m-tolyl)acetamide] came in with a melting point of 147 to 148 °C. Also, in series [1], the EC50 came out at 21.1 ± 8 µM. Moreover, in series [2], the IC50 was above 200 µM and the “activity as PA–PB1 disruptors (in words)” value is given as “lack of activity as PA–PB1 disruptors”. In “in vitro”, this molecule came in with a CC50 at 48 h above 250 µM.
`Cc1cccc(NC(=O)CSc2nc(-c3ccc(Cl)cc3)cc(-c3cccc4ccccc34)n2)c1` [Compound 2g, 2-{[4-(4-Chlorophenyl)-6-(naphthalen-1-yl)pyrimidin-2-yl]thio}-N-(m-tolyl)acetamide] registered a melting point of 103 to 107 °C. In addition, the EC50 in series [1] is above 100 µM. Also, the 50% inhibitory concentration (IC50) in series [2] was above 200 µM. For the same molecule, the CC50 at 48 h in the series “in vitro” is above 250 µM.
The molecule `Cc1cccc(NC(=O)CSc2nc(-c3ccc(F)cc3)cc(-c3cccc4ccccc34)n2)c1` [Compound 2h, 2-{[4-(4-Fluorophenyl)-6-(1-naphthyl)pyrimidin-2-yl]thio}-N-(3-methylphenyl)acetamide] yielded a melting point of 145 to 147 °C. Besides, in series [1], the EC50 came to 14.8 ± 1.6 µM. Also, in series [2], the half-maximal inhibitory concentration (IC50) was above 200 µM and the “activity as PA–PB1 disruptors (in words)” value is on record as “lack of activity as PA–PB1 disruptors”. In addition, the CC50 at 48 h in “in vitro” was above 250 µM.
In the case of `Cc1cccc(NC(=O)CSc2nc(Sc3ccccc3)cc(-c3ccccc3)n2)c1` [Compound 2i, 2-{[4-Phenyl-6-(phenylthio)pyrimidin-2-yl]thio}-N-(m-tolyl)acetamide], the melting point lay within 127 to 128 °C. In addition, in series [1], the EC50 came out at 4.6 ± 0.3 µM. The molecule further registered an IC50 in series [2] of 28.8 ± 1.5 µM. This molecule also returned a CC50 at 48 h in the series “in vitro” of 73.3 ± 9.1 µM.
The corresponding values for `Cc1cccc(NC(=O)CSc2cc(-c3ccccc3)cc(Sc3ccccc3)n2)c1` [Compound 2m, 2-{[4-Phenyl-6-(phenylthio)pyridin-2-yl]thio}-N-(m-tolyl)acetamide] are 122 to 123 °C, 32.3 ± 3.2 µM, 141 ± 44 µM and above 250 µM.
The corresponding values for `Cc1cccc(NC(=O)CSc2cc(-c3ccc(Cl)cc3)cc(Sc3ccccc3)n2)c1` [Compound 2n, 2-{[4-(4-chlorophenyl)-6-(phenylthio)pyridin-2-yl]thio}-N-(m-tolyl)acetamide] are 93 to 95 °C, 62.9 ± 13.2 µM, 87 ± 15.7 µM and above 250 µM.
The like results for `COC(=O)[C@@H](NC(=O)CSc1nc(-c2ccccc2)cc(-c2ccc(F)cc2)n1)C(C)C` [Compound 3a, Methyl (2-((4-(4-fluorophenyl)-6-phenylpyrimidin-2-yl)thio)acetyl)-L-valinate] were, in that order, 152 to 153 °C, above 100 µM, above 200 µM and 234 ± 19 µM.
`CC[C@H](C)[C@H](NC(=O)CSc1nc(-c2ccccc2)cc(-c2ccc(F)cc2)n1)C(=O)OC` [Compound 3b, Methyl (2-((4-(4-fluorophenyl)-6-phenylpyrimidin-2-yl)thio)acetyl)-L-isoleucinate] registered a melting point of 94 to 95 °C. Further, the half-maximal effective concentration (EC50) in series [1] is above 100 µM. The same molecule yielded an IC50 in series [2] above 200 µM. Moreover, in the series “in vitro”, the CC50 at 48 h is above 250 µM.
Regarding `COC(=O)[C@H](Cc1ccc(O)cc1)NC(=O)CSc1nc(-c2ccc(F)cc2)cc(-c2ccc(F)cc2)n1` [Compound 3g, Methyl (2-((4,6-bis(4-fluorophenyl)pyrimidin-2-yl)thio)acetyl)-L-tyrosinate], the EC50 in series [1] is above 100 µM. This molecule also returned an IC50 in series [2] above 200 µM. Besides, the CC50 at 48 h in “in vitro” was above 250 µM.
The molecule `COC(=O)[C@@H](NC(=O)CSc1cc(-c2ccccc2)cc(-c2ccccc2)n1)C(C)C` [Compound 3i, Methyl (2-((4,6-diphenylpyridin-2-yl)thio)acetyl)-L-valinate] yielded a melting point of 63 to 64 °C. Besides, the IC50 in series [2] is above 200 µM.
The like results for `CC[C@H](C)[C@H](NC(=O)CSc1cc(-c2ccccc2)cc(-c2ccccc2)n1)C(=O)OC` [Compound 3j, Methyl (2-((4,6-diphenylpyridin-2-yl)thio)acetyl)-L-isoleucinate] were, in that order, 70 to 71 °C and above 200 µM.
The molecule `COC(=O)[C@H](Cc1ccc(O)cc1)NC(=O)CSc1cc(-c2ccccc2)cc(-c2ccccc2)n1` [Compound 3k, Methyl (2-((4,6-diphenylpyridin-2-yl)thio)acetyl)-L-tyrosinate] came in with a melting point of 111 to 112 °C. The molecule also registered an IC50 in series [2] above 200 µM.
The like results for `CC[C@H](C)[C@H](NC(=O)CSc1cc(-c2ccccc2)cc(-c2ccc(F)cc2)n1)C(=O)OC` [Compound 3l, Methyl (2-((6-(4-fluorophenyl)-4-phenylpyridin-2-yl)thio)acetyl)-L-isoleucinate] were, in that order, 76 to 77 °C and above 200 µM.
On to `COC(=O)[C@H](Cc1ccc(O)cc1)NC(=O)CSc1cc(-c2ccccc2)cc(-c2ccc(F)cc2)n1` [Compound 3m, Methyl (2-((6-(4-fluorophenyl)-4-phenylpyridin-2-yl)thio)acetyl)-L-tyrosinate], for which the melting point lay in the range of 151 to 152 °C. In addition, the IC50 in series [2] was above 200 µM.
The corresponding values for `COC(=O)[C@H](Cc1c[nH]cn1)NC(=O)CSc1cc(-c2ccccc2)cc(-c2ccc(F)cc2)n1` [Compound 3n, Methyl (2-((6-(4-fluorophenyl)-4-phenylpyridin-2-yl)thio)acetyl)-L-histidinate] are 155 to 156 °C and above 200 µM.
